Assays:
NR4A3 [1] = assay: NR4A3 ubiquitination after OGD-R in vascular endothelial cells (immunoprecipitation with anti-ubiquitin antibodies); type: cell-based
Method: (§1) HUVEC cells were cultured in modified DMEM medium containing 10% fetal bovine serum. When the cells reached about 80% confluence, the cells were digested with 0.25% trypsin, and then pipetted evenly with modified DMEM containing 10% […]. The cell concentration was adjusted to 1×10^5 cells/mL, and the cells were seeded at 400 uL/well in a 24-well plate, and the experiment was carried out when the cells grew to about 70% confluence. RAOEC cells were cultured in high-glucose DMEM medium containing 10% fetal bovine serum, and the seeding conditions were the same as those of HUVEC. During the OGD-R injury treatment, the hypoxia workstation was set to have an oxygen concentration of 1% (1% O2, 5% CO2, 94% N2), a temperature of 37° C., and a humidity of 85%. A sugar-free DMEM medium was placed in the hypoxia workstation for pre-hypoxia for 3 hours. The medium in the culture plate was aspirated, and the plate was washed twice with preheated sugar-free DMEM medium, and 100 uL of sugar-free DMEM medium was added to each well. The culture plate was placed in the hypoxia workstation, and 300 uL of pre-hypoxic sugar-free DMEM medium was added to each well, and then the culture plate was placed in the hypoxia workstation for additional hypoxia for 4 hours. Restoration was then performed. The culture plate was taken out, and the sugar-free DMEM medium was replaced with 400 uL of normal medium containing 10% fetal bovine serum, and then the plate was placed in a 37° C. 5% CO2 cell incubator for culturing for 24 hours or a specified time period. For the cells in the normal group, it was only replaced with 400 uL of new normal medium containing 10% fetal bovine serum. […]
(§2) The cells were washed twice with pre-cooled PBS, then scraped off with a cell scraper and transferred to a 1.5 mL centrifuge tube, and centrifugation was performed at 4° C. and 1000 g for 5 minutes. […] Each protein sample was then quantified using the BCA protein quantification kit. After protein quantification, IP lysis buffer was used to adjust the protein concentration of each sample to 1 mg/mL. […]

NR4A3 [2] = assay: NR4A3 protein expression under OGD-R, RAOEC (Western blot, immunofluorescence); type: cell-based, rat; conditions: OGD 4 hours, restoration 24 hours, 1, 3, 10 μM given at restoration
Method: as §1
as §2, with “protein” for “IP”, “be consistent with the protein sample with the lowest concentration, and then each protein sample was sufficiently mixed with 5× protein loading buffer at a ratio of 4:1.” for “1 mg/mL.”

NR4A3 [3] = assay: NR4A3/CD31 immunofluorescence of lung tissue, acute hypobaric hypoxia; type: in vivo, Macaca fascicularis
Method: Paraffin sections of Macaca fascicularis lung tissue, include 3 in the normal control group (normobaric normoxia, NN), 5 in the acute hypobaric hypoxia treatment group (hypobaric hypoxia, HH), and 5 in the acute hypobaric hypoxia+YC-6 treatment group (HH+YC-6).
The paraffin sections were placed in a 65° C. oven for 30 minutes, and then quickly transferred to 100% xylene for dewaxing, and then subjected to rehydration according to the regular process (100% xylene, 5 min—100% xylene, 2 min—100% xylene, 2 min—100% ethanol, 1 min—100% ethanol, 1 min—95% ethanol, 1 min—90% ethanol, 1 min—B0% ethanol, 1 min—70% ethanol, 1 min—50% ethanol, 1 min—distilled water, 1 min×3), and then EDTA antigen retrieval solution (microwave heating) was used for antigen retrieval. After the retrieval, it was naturally cooled to room temperature, and then washed three times with PBS for 5 minutes each time. The residual PBS on the tissue section was removed. A circle was drew around the tissue with an immunohistochemical pen, and then the corresponding primary antibody diluted in DAKO antibody diluent was added to the tissue to make it completely cover the tissue. The tissue section was incubated overnight in a humidified chamber at 4° C. Then it was washed 3 times with PBS for 5 minutes each time. […]

Structure (SMILES): C[C@@]12CCCC1C1C[C@@H](O)[C@]3(O)C[C@@H](O)CC[C@]3(C)C1CC2 (stereo partly drawn) [YC-6, 5α-androst-3β,5,6β-triol]
- ubiquitination of NR4A3 on co-administration with MG132 (NR4A3 [1]; YC-6 10 μM with MG132 100 nM after restoration): did not significantly increase the ubiquitination of NR4A3
- ubiquitination modification of NR4A3 induced by restoration (NR4A3 [1]; YC-6 10 μM, MG132 100 nM, given at restoration): could inhibit the ubiquitination of NR4A3 induced by restoration
- NR4A3 protein expression (NR4A3 [2]): dose-dependently increase the protein expression of NR4A3
- NR4A3 protein expression in lung tissue endothelial cells (NR4A3 [3]; NR4A3 co-localized with CD31, immunofluorescence): significantly increased the protein expression of NR4A3
- expression of vascular endothelial cell marker CD31 in lung tissue (NR4A3 [3]; immunofluorescence): inhibited the down-regulation of the expression of vascular endothelial cell marker CD31
